Data from patent publication US10988444B2, “Antimicrobial compounds” (NEWSOUTH INNOVATIONS PTY LIMITED, priority 2016, dated 2021).
Values after ≈ are worked out from the molar mass of the structure shown.

Legend:
E. coli [1] = test: Minimal inhibitory concentration (MIC) determination, Example 1; assay type: cell-based; details: 24 h, MHB, 37° C.; for MIC: Escherichia coli, read-out: Minimum inhibitory concentration (MIC) E. coli
Protocol: (§1) The antibacterial activity of the compounds was determined by the determination of minimal inhibitory concentration (MIC) by following the previously published protocol (see Nizalapur, S.; Ho, K. K.; Kimyon, Ö.; Yee, E.; Berry, T.; Manefield, M.; Cranfield, C. G.; Willcox, M.; Black, D. S.; Kumar, N. Org. Biomol. Chem. 2016, 14, 3623). The compounds to be tested were dissolved and diluted in autoclaved Millipore water. A single colony of bacteria was cultured overnight in TSB at 37° C. The resulting bacteria were collected by centrifugation and re-suspended in the same volume of MHB twice. Optical density (OD) of the resulting culture was adjusted to 0.1 at 600 nm (10^8 CFU/mL) in MHB, and the adjusted culture was further diluted to […] in MHB. Then, 100 μL of the bacterial solution was added to wells of a 96-well plate containing 100 μL of serially diluted compound. Two controls were also prepared: one containing 100 μL of MHB media and 100 μL sterile water, and the other containing 100 μL of bacterial solution and 100 μL sterile water. […] The MIC value was determined as the lowest concentration of compound that inhibited the complete growth of the bacteria (i.e. OD similar to that of the control having no bacteria). Each experiment was performed in triplicate and was repeated in three independent experiments.
(§2) The results of the MIC assay are given below in Table 1.

S. aureus [2] = test: as above; assay type: cell-based; details: MHB, 37° C., 24 h; for MIC: Staphylococcus aureus, read-out: Minimum inhibitory concentration (MIC) S. aureus
Protocol: as §1, §2

[3] = tested on: Pseudomonas aeruginosa (PAO1); test: Biofilm disruption assay, established biofilms, crystal violet staining; assay type: cell-based; details: 250 μM, 24 h treatment
Protocol: (§3) Bacterial cultures were grown in TSB media for overnight at 37° C. with shaking at 150 r.p.m. Cultures were diluted (1:20) in YPD medium and 200 μl aliquots were dispensed to flat bottom 96-well plate wells (Sarstedt Australia). Cultures were supplemented with varying concentrations of synthetic compounds dissolved in water. For pre-established biofilm assay, cultures were grown in 96-well plate wells overnight prior to supplementation with synthetic compounds. Control cultures were supplemented with an equal amount of DMSO. Plates were sealed with self-adhesive microplate sealers (TopSeal-A, PerkinElmer) to allow air diffusion and to prevent condensation. Cultures were incubated overnight at 37° C. with shaking at 150 r.p.m. Biofilms adhered on polystyrene substratum were quantified by crystal violet staining as described previously (see Wiegand, I.; Hilpert, K.; Hancock, R. E. W. Nat. Protocols 2008, 3 (2), 163-175). All cultures were prepared in triplicates. Error bars represent the standard error of three independent experiments (n=3).
(§4) The biofilm disruption activities of the compounds were investigated using crystal violet staining according to a previously published protocol (G. A. O'Toole, J Vis Exp, 2011, (47), pii: 2437, DOI: 10.3791/2437, 2437). The ability of compounds (34-38, 51-56, 61, 62, 65 and 66) to disrupt the established biofilms of the Gram-positive bacteria S. aureus and the Gram-negative bacteria Pseudomonas aeruginosa, Serratia marcescens and E. coli, was determined at a concentration of 250 μM. In this assay, bacterial cultures were grown on a polystyrene substratum overnight prior to treatment with the compounds. In addition, the ability of these compounds to inhibit the formation of biofilms of P. aeruginosa and S. marcescens was also investigated at 250 μM, whereby the bacterial cultures were grown in the presence of test compounds.

S. aureus [4] = test: as above; assay type: cell-based; details: 250 μM, 24 h treatment
Protocol: as §3, §4

E. coli (K12) = test: Minimal inhibitory concentration (MIC) assay, broth micro dilution, Example 3; assay type: cell-based; details: Escherichia coli; K12, MHB, 37° C., 18-24 hours; read-out: Minimum inhibitory concentration (MIC) E. coli
Protocol: (§5) Compounds 95, 96, 106, 107, 109, 117 were assessed by determining their minimum inhibitory concentration (MIC) according through broth micro dilution assay using the procedure described by M. A. Wikler, Methods for dilution antimicrobial susceptibility tests for bacteria that grow aerobically: approved standard, Clinical and Laboratory Standards Institute, 2006. Briefly, bacteria were grown to mid-log phase in Muller Hinton broth (MHB) with shaking at 120 rpm and incubated at 37° C. for 18-24 hours. Following incubation, bacteria were washed three times in PBS pH 7.4 at 3500 g for 10 minutes. After washing, bacteria were diluted with fresh MHB. The turbidity of the bacterial suspensions were adjusted so that OD660 nm was 0.1, which gave 1×10^8 cfu/ml, and then further diluted to achieve 1-2×10^5 cfu/ml as a final bacterial concentration. Each compound was diluted (250-3.9 μM) through two-fold dilution. Wells in microtitre plates were loaded with 100 μl of inoculum containing 1-2×10^5 cfu/ml bacteria. Wells without any compound and containing only bacteria were used as a negative control (i.e. no inhibition of growth). Wells without bacteria but containing compound acted as another control. The microtitre plate was wrapped with paraffin to prevent evaporation and incubated with shaking at 120 rpm and 37° C. for 18-24 hours. After incubation, spectrophotometric reading was taken. The well without any bacterial growth and showing zero spectrophotometric reading regarded as mic of the compounds.

S. aureus (SA38) = test: as above; assay type: cell-based; details: Staphylococcus aureus; SA38, MHB, 37° C., 18-24 hours; read-out: Minimum inhibitory concentration (MIC) S. aureus
Protocol: as §5

S. marcescens [5] = test: Biofilm inhibition assay (inhibition of biofilm formation), crystal violet staining; assay type: cell-based; details: Serratia marcescens, 24 h
Protocol: as §3, with “no-established” for “pre-established”, “along” for “prior to supplementation”, “water.” for “DMSO.”
as §4

S. marcescens [6] = test: Biofilm disruption assay, established biofilms, crystal violet staining; assay type: cell-based, Serratia marcescens; details: 250 μM, 24 h treatment
Protocol: as §3, §4

E. coli [7] = test: as above; assay type: cell-based; details: 250 μM, 24 h treatment
Protocol: as §3, §4

| Compound | MIC (E. coli [1]) | MIC (S. aureus [2]) | MIC (E. coli (K12)) | MIC (S. aureus (SA38)) | further results |
| --- | --- | --- | --- | --- | --- |
| COC(=O)C(CCCN)NC(=O)C(CCCCN)NC(=O)C(=O)c1ccccc1NC(=O)c1ccc2ccccc2c1.Cl.Cl (stereo not drawn) [Compound 61, Methyl2-(2-(2-(2-(2-naphthamido)phenyl)-2-oxoacetamido)-6-aminohexanamido)-5-aminopentanoate dihydrochloride] | 39 µg/mL | 130 µg/mL | – | – | disruption of established biofilms of P. aeruginosa [3]: 55%; disruption of established biofilms of S. aureus (S. aureus [4]): 53% |
| Cc1ccc(NC(=O)c2ccc3ccccc3c2)c(C(=O)C(=O)N[C@@H](CCCCNC(=N)N)C(=O)O)c1.Cl [Compound 54, N^2-(2-(2-(2-naphthamido)-5-methylphenyl)-2-oxoacetyl)-N^6-carbamimidoyllysine hydrochloride] | 68 µg/mL | 54 µg/mL | – | – | Minimum inhibitory concentration (MIC) E. coli (E. coli [1]; hydrochloride): 69 µg/mL; disruption of established biofilms of P. aeruginosa [3]: 46% |
| COc1ccc(NC(=O)c2ccc3ccccc3c2)c(C(=O)N[C@@H](Cc2c[nH]c3ccccc23)C(=O)NCCNC(=N)N)c1 [Compound 109, (S)—N-(2-((1-((2-Guanidinoethyl)amino)-3-(1H-indol-3-yl)-1-oxopropan-2-yl)carbamoyl)-4-methoxyphenyl)-2-naphthamide] | – | – | 62.5 µM (≈ 37 µg/mL) | 7.8 µM (≈ 4.62 µg/mL) | – |
| CC(=O)C(CCCCNC(=N)N)NC(=O)C(=O)c1ccccc1NC(=O)c1ccc2ccccc2c1.Cl (stereo not drawn) [Compound 55, N-(2-(2-((7-guanidino-2-oxoheptan-3-yl)amino)-2-oxoacetyl)phenyl)-2-naphthamide hydrochloride] | 17 µg/mL | > 140 µg/mL | – | – | – |
| Gentamicin [reference compound] | – | – | – | – | Minimum inhibitory concentration (MIC) E. coli (E. coli [1]): 2.5 µg/mL; Minimum inhibitory concentration (MIC) S. aureus (S. aureus [2]): <0.6 µg/mL |
| NCCNC(=O)[C@H](Cc1c[nH]c2ccccc12)NC(=O)c1cc(F)ccc1NC(=O)c1ccc2ccccc2c1 [Compound 96, (S)—N-(2-((1-((2-Aminoethyl)amino)-3-(1H-indol-3-yl)-1-oxopropan-2-yl)carbamoyl)-4-fluorophenyl)-2-naphthamide] | – | – | 15.6 µM (≈ 8.39 µg/mL) | 7.8 µM (≈ 4.19 µg/mL) | – |
| Cl.N=C(N)NCCCC[C@H](NC(=O)C(=O)c1cc(Br)ccc1NC(=O)c1ccc2ccccc2c1)C(=O)O [Compound 52, N^2-(2-(2-(2-naphthamido)-5-bromophenyl)-2-oxoacetyl)-N^6-carbamimidoyllysine hydrochloride] | 77 µg/mL | 77 µg/mL | – | – | disruption of established biofilms of S. aureus (S. aureus [4]): 42%; inhibition at 250 µM (S. marcescens [5]): 72% |
| CN(C)CCNC(=O)[C@H](Cc1c[nH]c2ccccc12)NC(=O)c1cc(Br)ccc1NC(=O)c1ccc2ccccc2c1 [Compound 117, (S)-2-(2-(2-(2-Naphthamido)-5-bromobenzamido)-3-(1H-indol-3-yl)propanamido)-N,N-dimethylethan-1-aminium chloride] | – | – | 125 µM | 7.8 µM | – |
| Cl.N=C(N)NCCCC[C@H](NC(=O)C(=O)c1ccccc1NC(=O)c1ccc2ccccc2c1)C(=O)O [Compound 51, N^2-(2-(2-(2-naphthamido)phenyl)-2-oxoacetyl)-N^6-carbamimidoyllysine hydrochloride] | 66 µg/mL | 53 µg/mL | – | – | disruption of established biofilms of S. marcescens (S. marcescens [6]): 48% |
| Cl.N=C(N)NCCCNC(=O)C(=O)c1cc(F)ccc1NC(=O)c1ccc2ccccc2c1 [Compound 37, N-(4-Fluoro-2-(2-((3-guanidinopropyl)amino)-2-oxoacetyl)phenyl)-2-naphthamide hydrochloride] | 59 µg/mL | 30 µg/mL | – | – | disruption of established biofilms of E. coli (E. coli [7]): 53%; inhibition at 250 µM (S. marcescens [5]): 74% |
| Cl.N=C(N)NCCCNC(=O)C(=O)c1ccccc1NC(=O)c1ccc2ccccc2c1 [Compound 34, N-(2-(2-((3-Guanidinopropyl)amino)-2-oxoacetyl)phenyl)-2-naphthamide hydrochloride] | > 110 µg/mL | 23 µg/mL | – | – | – |
| N=C(N)NCCNC(=O)[C@H](Cc1c[nH]c2ccccc12)NC(=O)c1cc(F)ccc1NC(=O)c1ccc2ccccc2c1 [Compound 107, (S)—N-(4-Fluoro-2-((1-((2-guanidinoethyl)amino)-3-(1H-indol-3-yl)-1-oxopropan-2-yl)carbamoyl)phenyl)-2-naphthamide] | – | – | 125 µM (≈ 72.5 µg/mL) | 1.8 µM (≈ 1.04 µg/mL) | – |
| CC(=O)C(CCCCNC(=N)N)NC(=O)C(=O)c1cc(Br)ccc1NC(=O)c1ccc2ccccc2c1.Cl (stereo not drawn) [Compound 56, N-(4-bromo-2-(2-((7-guanidino-2-oxoheptan-3-yl)amino)-2-oxoacetyl)phenyl)-2-naphthamide hydrochloride] | 19 µg/mL | > 140 µg/mL | – | – | inhibition at 250 µM (S. marcescens [5]): 61% |
| N=C(N)NCCNC(=O)[C@H](Cc1c[nH]c2ccccc12)NC(=O)c1cc(Br)ccc1NC(=O)c1ccc2ccccc2c1 [Compound 106, (S)—N-(4-Bromo-2-((1-((2-guanidinoethyl)amino)-3-(1H-indol-3-yl)-1-oxopropan-2-yl)carbamoyl)phenyl)-2-naphthamide] | – | – | 15.6 µM (≈ 9.99 µg/mL) | 3.9 µM (≈ 2.5 µg/mL) | – |
| NCCNC(=O)[C@H](Cc1c[nH]c2ccccc12)NC(=O)c1cc(Br)ccc1NC(=O)c1ccc2ccccc2c1 [Compound 95, (S)—N-(2-((1-((2-Aminoethyl)amino)-3-(1H-indol-3-yl)-1-oxopropan-2-yl)carbamoyl)-4-bromophenyl)-2-naphthamide] | – | – | > 125 µM | 3.9 µM (≈ 2.33 µg/mL) | – |
| Cc1ccc(NC(=O)c2ccc3ccccc3c2)c(C(=O)C(=O)NCCCNC(=N)N)c1.Cl [Compound 38, N-(2-(2-((3-Guanidinopropyl)amino)-2-oxoacetyl)-4-methylphenyl)-2-naphthamide hydrochloride] | > 110 µg/mL | 93 µg/mL | – | – | – |
